Test results as given in patent publication US6914045B2, “Glycopeptide antibiotics” (Wyeth Holdings Corporation, priority 2001, dated 2005).

Tests used:
[1] = system: Enterococcus faecalis (GC 6189); experiment: acute lethal infection in mice; assay type: in vivo; settings: female CD-1 mice, intraperitoneal challenge, intravenous 30 min. after infection, 7 day survival
How it was run: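 ED50 from 7 day survival ratios pooled over 3 separate tests. Female CD-1 mice, 20+/−2 gm, ip bacterial challenge (trypticase soy broth or hog gastric mucin) lethal to untreated controls in 24-48 hr; iv dosing 30 min after infection in saline or 5% dextrose, n=5/dose.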

Staphylococcus sp. = experiment: in vitro antibacterial evaluation, MIC by broth dilution; assay type: cell-based; settings: broth dilution, 18 hours at 35° C.
How it was run: (§1)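 Inoculum 5×10^5 CFU/mL; concentrations 64 to 0.06 μg/mL; MIC defined as lowest inhibitory level. Conducted by broth dilution under NCCLS guidelines.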

Enterococcus sp. = experiment: as above; assay type: cell-based; settings: broth dilution, 18 hours at 35° C.
How it was run: as §1

Streptococcus sp. = experiment: as above; assay type: cell-based; settings: broth dilution, 18 hours at 35° C.
How it was run: as §1

Escherichia coli = experiment: as above; assay type: cell-based; settings: 18 hours at 35° C.
How it was run: as §1

CCC(CC)C1OCC2OC(OC3C(CO)OC(Oc4ccc(CC5NC(=O)C(C(C)c6ccccc6)NC(=O)CNC(=O)C(CO)NC(=O)C(C(O)C6CNC(=N)N6C6OC(CO)C(O)C(O)C6O)NC(=O)C(C(O)C6CNC(=N)N6)NC5=O)cc4)C(O)C3O)C(O)C(O)C2O1 (stereo not drawn) [Example 116, Cyclo[glycyl-β-methylphenylalanyl-O-[4-O-[4,6-O-(2-ethylbutylidene)hexopyranosyl]-hexopyranosyl]tyrosyl-3-(2-iminoimidazolidin-4-yl)seryl-3-(3-hexopyranosvl-2-iminoimidazolidin-4-yl)serylseryl]]
64 mg/L: MIC Escherichia coli (GC 4559) (Escherichia coli; strain GC 4559)
0.46 mg/kg: median effective dose (ED50), Enterococcus faecalis (GC 6189) [1]
1 mg/L: MIC Coagulase Negative Staphylococcus (GC 4547) (Staphylococcus sp.) | MIC Coagulase Negative Staphylococcus (GC 4548) (Staphylococcus sp.) | MIC Coagulase Negative Staphylococcus (GC 4549) (Staphylococcus sp.) | MIC Coagulase Negative Staphylococcus (GC 4551) (Staphylococcus sp.) | MIC Staphylococcus aureus (ATCC 29213) (Staphylococcus sp.) | MIC Staphylococcus aureus (GC 1131) (Staphylococcus sp.) | MIC Staphylococcus aureus (GC 3051) (Staphylococcus sp.) | MIC Staphylococcus aureus (GC 3053) (Staphylococcus sp.) | MIC Staphylococcus aureus (GC 4541) (Staphylococcus sp.) | MIC Staphylococcus aureus (GC 4544) (Staphylococcus sp.) | MIC Staphylococcus aureus (GC 4545) (Staphylococcus sp.) | MIC Staphylococcus aureus-SMITH (GC 4543) (Staphylococcus sp.) | MIC Staphylococcus aureus (GC 1131) (Staphylococcus sp.; inoculum 5×10^5 CFU/mL, strain GC 1131) | MIC Staphylococcus aureus (ATCC 29213) (Staphylococcus sp.; strain ATCC 29213) | MIC Staphylococcus aureus (GC 3051) (Staphylococcus sp.; strain GC 3051) | MIC Staphylococcus aureus (GC 3053) (Staphylococcus sp.; strain GC 3053) | MIC Staphylococcus aureus (GC 4541) (Staphylococcus sp.; strain GC 4541) | MIC Staphylococcus aureus (GC 4544) (Staphylococcus sp.; strain GC 4544) | MIC Staphylococcus aureus (GC 4545) (Staphylococcus sp.; strain GC 4545) | MIC Coagulase Negative Staphylococcus (GC 4547) (Staphylococcus sp.; strain GC 4547) | MIC Coagulase Negative Staphylococcus (GC 4548) (Staphylococcus sp.; strain GC 4548) | MIC Coagulase Negative Staphylococcus (GC 4549) (Staphylococcus sp.; strain GC 4549) | MIC Coagulase Negative Staphylococcus (GC 4551) (Staphylococcus sp.; strain GC 4551) | MIC Staphylococcus aureus-SMITH (GC 4543) (Staphylococcus sp.; strain SMITH GC 4543) | MIC Escherichia coli (GC 4560) (Escherichia coli; strain GC 4560)
32 mg/L: MIC Escherichia coli (ATCC 25922) (Escherichia coli; strain ATCC 25922)
<0.06 mg/L: MIC Streptococcus pneumoniae (ATCC 6301) (Streptococcus sp.; Streptococcus pneumoniae (ATCC 6301)) | MIC Streptococcus pneumoniae (GC 1894) (Streptococcus sp.; Streptococcus pneumoniae (GC 1894)) | MIC Streptococcus pneumoniae (GC 4565) (Streptococcus sp.; Streptococcus pneumoniae (GC 4565)) | MIC Streptococcus pneumoniae (ATCC 6301) (Streptococcus sp.; strain ATCC 6301) | MIC Streptococcus pneumoniae (GC 1894) (Streptococcus sp.; strain GC 1894) | MIC Streptococcus pneumoniae (GC 4565) (Streptococcus sp.; strain GC 4565)
0.5 mg/L: MIC Coagulase Negative Staphylococcus (GC 6257) (Staphylococcus sp.) | MIC Staphylococcus aureus (GC 4542) (Staphylococcus sp.) | MIC Staphylococcus haemolyticus (GC 4546) (Staphylococcus sp.) | MIC Staphylococcus aureus (GC 4542) (Staphylococcus sp.; strain GC 4542) | MIC Staphylococcus haemolyticus (GC 4546) (Staphylococcus sp.; strain GC 4546) | MIC Coagulase Negative Staphylococcus (GC 6257) (Staphylococcus sp.; strain GC 6257)
2 mg/L: MIC Enterococcus avium (GC 4558) (Enterococcus sp.; Enterococcus avium (GC 4558)) | MIC Enterococcus faecalis (ATCC 29212) (Enterococcus sp.; Enterococcus faecalis (ATCC 29212)) | MIC Enterococcus faecalis (GC 2242) (Enterococcus sp.; Enterococcus faecalis (GC 2242)) | MIC Enterococcus faecalis (GC 2691) (Enterococcus sp.; Enterococcus faecalis (GC 2691)) | MIC Enterococcus faecalis (GC 3059) (Enterococcus sp.; Enterococcus faecalis (GC 3059)) | MIC Enterococcus faecalis (GC 4552) (Enterococcus sp.; Enterococcus faecalis (GC 4552)) | MIC Enterococcus faecalis (GC 4553) (Enterococcus sp.; Enterococcus faecalis (GC 4553)) | MIC Enterococcus faecalis (GC 4554) (Enterococcus sp.; Enterococcus faecalis (GC 4554)) | MIC Enterococcus faecalis (GC 6189) (Enterococcus sp.; Enterococcus faecalis (GC 6189)) | MIC Enterococcus faecium (GC 2243) (Enterococcus sp.; Enterococcus faecium (GC 2243)) | MIC Enterococcus faecium (GC 4556) (Enterococcus sp.; Enterococcus faecium (GC 4556)) | MIC Enterococcus faecium (GC 4557) (Enterococcus sp.; Enterococcus faecium (GC 4557)) | MIC Enterococcus faecalis (ATCC 29212) (Enterococcus sp.; strain ATCC 29212) | MIC Enterococcus faecalis (GC 2242) (Enterococcus sp.; strain GC 2242) | MIC Enterococcus faecium (GC 2243) (Enterococcus sp.; strain GC 2243) | MIC Enterococcus faecalis (GC 2691) (Enterococcus sp.; strain GC 2691) | MIC Enterococcus faecalis (GC 3059) (Enterococcus sp.; strain GC 3059) | MIC Enterococcus faecalis (GC 4552) (Enterococcus sp.; strain GC 4552) | MIC Enterococcus faecalis (GC 4553) (Enterococcus sp.; strain GC 4553) | MIC Enterococcus faecalis (GC 4554) (Enterococcus sp.; strain GC 4554) | MIC Enterococcus faecium (GC 4556) (Enterococcus sp.; strain GC 4556) | MIC Enterococcus faecium (GC 4557) (Enterococcus sp.; strain GC 4557) | MIC Enterococcus avium (GC 4558) (Enterococcus sp.; strain GC 4558) | MIC Enterococcus faecalis (GC 6189) (Enterococcus sp.; strain GC 6189)
0.25 mg/L: MIC Streptococcus agalactiae (GC 4564) (Streptococcus sp.; Streptococcus agalactiae (GC 4564)) | MIC Streptococcus pyogenes (GC 4563) (Streptococcus sp.; Streptococcus pyogenes (GC 4563)) | MIC Streptococcus pyogenes (GC 4563) (Streptococcus sp.; strain GC 4563) | MIC Streptococcus agalactiae (GC 4564) (Streptococcus sp.; strain GC 4564)
